The source of these data is article PMC6637260 (2019).

Test [1] relates to Tel22 (DNA, G4) AGGGTTAGGGTTAGGGTTAGGG
Kind of test: ITC. The following applies: 10 mM Tris, 1 mM EDTA, pH 7.4, 20 °C.

In test [2] the test system is ds43 (DNA, duplex) CGTCACGTAAATCGGTTAACAAATGGCTTTCGAAGCTAGCTTC/GAAGCTAGCTTCGAAAGCCATTTGTTAACCGATTTACGTGACG
Briefly: FRET melting competition. As to conditions: 100 mM KCl; 10 mM lithium cacodylate pH 7.2; 10 equivalents ds43 lower F21T ΔT1/2 from 19.5 to 7 °C.

Test [3] has as its system F21T (DNA, G4) GGGTTAGGGTTAGGGTTAGGG
Kind of test: FRET melting. The following applies: 100 mM KCl; 10 mM lithium cacodylate pH 7.2; 1 µM TPE-Im, 200 nM F21T (5:1).

Regarding `C[n+]1ccn(-c2ccc(C(=C(c3ccc(-n4cc[n+](C)c4)cc3)c3ccc(-n4cc[n+](C)c4)cc3)c3ccc(-n4cc[n+](C)c4)cc3)cc2)c1`, the Ka in test [1] (100 mM KCl) is on record as 2.4 (±1.0).10^5 M^-1; in test [1] (100 mM NaCl) it was 3.2 (±1.1).10^5 M^-1. Further, in test [2], the binding result is “weak”. For the same molecule, the ΔT1/2 in test [3] stood at 19.5 °C.
